Key:
[1] = system: Myzus persicae; assay: Myzus test (spray treatment); assay type: in vivo; conditions: foliar, 500 g/ha, spray on Brassica pekinensis leaf discs, 100 % = all aphids killed, read-out: Wirkung
Excerpt: Myzus-Test (Spritzbehandlung)
Zur Herstellung einer zweckmäßigen Wirkstoffzubereitung vermischt man 1 Gewichtsteil Wirkstoff mit den angegebenen Mengen Lösungsmittel und Emulgator und verdünnt das Konzentrat mit emulgatorhaltigem Wasser auf die gewünschte Konzentration. Chinakohlblattscheiben (Brassica pekinensis), die von allen Stadien der Grünen Pfirsichblattlaus (Myzus persicae) befallen sind, werden mit einer Wirkstoffzubereitung der gewünschten Konzentration gespritzt. Nach der gewünschten Zeit wird die Wirkung in % bestimmt. Dabei bedeutet 100 %, dass alle Blattläuse abgetötet wurden; 0 % bedeutet, dass keine Blattläuse abgetötet wurden. Bei diesem Test zeigen z. B. die folgenden Verbindungen der Herstellungsbeispiele eine Wirkung von ≥ 80 % bei einer Aufwandmenge von 500 g/ha: • Bsp. Nr. 2, 3, 31, 32, 33, 36, 37, 39, 40, 41, 42, 43, 44, 45, 46, 63, 64, 65, 66, 86, 87, 88, 90, 95, 96, 97, 99, 103

[2] = system: Lucilia cuprina Larven; assay: Lucilia cuprina test (treated horse meat, larvae); assay type: in vivo; conditions: 100 % = all larvae killed, read-out: Abtötung
Excerpt: Zur Herstellung einer zweckmäßigen Wirkstoffzubereitung vermischt man 1 Gewichtsteil Wirkstoff mit der angegebenen Menge Wasser und verdünnt das Konzentrat mit Wasser auf die gewünschte Konzentration. Gefäße, die Pferdefleisch enthalten, das mit der Wirkstoffzubereitung der gewünschten Konzentration behandelt wurde, werden mit Lucilia cuprina Larven besetzt. Nach der gewünschten Zeit wird die Abtötung in % bestimmt. Dabei bedeutet 100 %, dass alle Larven abgetötet wurden; 0 % bedeutet, dass keine Larven abgetötet wurden. Bei diesem Test zeigen z. B. die folgenden Verbindungen der Herstellungsbeispiele eine Wirkung von ≥ 80 % bei einer Aufwandmenge von 100 ppm: • Bsp. Nr. 65

[3] = system: Boophilus microplus; assay: Boophilus microplus test (injection); assay type: in vivo; conditions: 20 µg/Tier; injection into abdomen; 100 % = no tick laid fertile eggs
Excerpt: Boophilus microplus -Test (Injektion)
Zur Herstellung einer zweckmäßigen Wirkstoffzubereitung vermischt man 1 Gewichtsteil Wirkstoff mit der angegebenen Menge Lösungsmittel und verdünnt das Konzentrat mit Lösungsmittel auf die gewünschte Konzentration. Die Wirkstofflösung wird in das Abdomen (Boophilus microplus) injiziert, die Tiere werden in Schalen überführt und in einem klimatisierten Raum aufbewahrt. Nach der gewünschten Zeit wird die Wirkung in % bestimmt. Dabei bedeutet 100%, dass keine Zecke fertile Eier gelegt hat. Bei diesem Test zeigen z. B. die folgenden Verbindungen der Herstellungsbeispiele eine Wirkung von = 80 % bei einer Aufwandmenge von 20 µg/Tier: • Bsp. Nr. 43, 44, 45, 46, 63, 64, 65, 66

[4] = logP (HCOOH); conditions: hplc, formic acid

chromatographic logP [4]: 3.38
SMILES: COCCNC(=S)N1CCOC1=N[C@@H](C)c1cccs1 [Beispiel 65]
mortality at 500 g/ha [1]: ≥ 80%
mortality at 100 ppm [2]: ≥ 80%
Wirkung [3]: 80%

Reference: patent EP2070923A1, “Insecticide iminoheterocycles” (priority 2007, dated 2009)
